Assay [1] relates to cytokines secretion in colon extracts. In words: Cytokine assays in colon extracts of DSS-induced colitis mice. The format is in vivo. As to conditions: OxA treatment. As to the method:
FIG. 3: OXA effects on cytokines secretion in DSS-induced colitis mice. Right, Colons of DSS untreated mice (white), DSS treated mice (gray) and DSS treated mice associated to OxA treatment (black) were resected after animal sacrifice. Then, protein extraction was performed by tissue disruption. Cytokines were determined using Cytokine CBA kits (see Material and Methods). Left, after colon resection, RNA were extracted from colonic tissue and qPCR was performed using specific oligonucleotides for IL8 homolog and IL1B.
These observations are confirmed by histologic aspect of colon epithelium (histologic scoring by a GI pathologist). Thus, OxA has probably an anti-inflammatory effect on DSS-induced colitis. To confirm this hypothesis, we have investigated the anti-inflammatory effect of OxA treatment on cytokines secretion in colon extracts from DSS-treated mice. […] In contrast, OxA has no effect on INFγ, IL10, and IL12 cytokine secretion in colon extracts (FIG. 3).
Cytokine assays: Mice were sacrificed and colons were resected. Proteins were extracted from colon by tissue disruption in PBS using Tissue Lyser (Qiagen, Courtaboeuf, France). Various cytokines (see FIG. 3) were determined using Cytokine CBA kits (BD Sciences, Le Pont de Claix, France).

The next assay relates to EAE mice. Nature of the assay: Chronic experimental autoimmune encephalomyelitis (EAE) induced with MOG35-55. The format is in vivo, C57BL/6 mice. Particulars: for Histopathological EAE score (spinal cord): 30 days post-immunization; for Regulatory T cell (Treg) proportion in draining lymph nodes: day 30 post-immunization, flow cytometry, versus PBS controls; for Clinical features of EAE (clinical score 0-5): orexin A 100 or 300 μg per mouse for 5 days, IP or retro-orbital, before onset or at moderate EAE score. The procedure:
EAE was induced with 100 μg of MOG35-55 (Myelin Oligodendrocyte Glycoprotein 35-55) as previously described (Proc Natl Acad Sci USA. 106(6):2012-7, 2009) to 9 week old female C57BL/6 wild-type (WT) mice (n=10/group). Panels show clinical signs of EAE scored daily in a blinded fashion for over 30 days on a scale of 0-5 as follows: 0, no detectable clinical signs, 1, waddling gait with limp tail, 2, ataxia with full paralysis of one limb, 3, full paralysis of two limbs, 4, full paralysis of two limbs with important weight loss (>20% of initial weight) and 5, moribund or dead. Then, mice were given:
Panel A, intraperitoneally (IP) either PBS (group PBS IP), 100 μg of orexin A per mouse for 5 days on day 3 (=before the onset, group BOxA100 IP) or at a moderate EAE score (=1,5-2 for group OxA100 IP).
Panel B, intraperitoneally either PBS (group PBS), 100 μg (group OxA100 IP) or 300 μg (group OxA300 IP) of orexin A per mouse for 5 days at a moderate EAE score (=1,5-2).
Panel C, either PBS (group PBS), 300 μg of orexin A per mouse intraperitoneally (group OxA300 IP) or retro-orbitally (RO) (group OxA300 RO) for 5 days at a moderate EAE score (=1,5-2).
The EAE score is shown as mean+/−SEM. *P<0.05 (nonparametric t-test, compared to PBS group).
FIG. 5. […] 30 days post-immunization, mice (from the PBS, OxA300 RO, and OxA300 IP groups of FIG. 2, panel C) were sacrificed and spinal cords were harvested, fixed overnight in 4% paraformaldehyde and stored in 70% ethanol. Spinal cords were then embedded in paraffin and cut in […] section. After haematoxylin/eosin (to distinguish cell infiltration) and luxol fast blue (to label myelin) staining, photography was performed at ×1,25 and ×10 magnifications for the spinal cord sections of PBS, OxA300 RO and OxA300 IP mice. […] Histopathology grading was as follows: 0—normal appearance, 1—some infiltrated cells and low demyelination, 2—2 or 3 infiltrated areas and low demyelination, 3—numerous infiltrated areas and strong demyelination, 4—important cell infiltration throughout the tissue with strong demyelination. *P<0.05 (nonparametric t-test, compared to PBS group).
FIG. 6. […] It was determined 30 days after EAE induction of PBS, OxA300 RO, and OxA300 IP mice (from FIG. 2, panel C) by real time RT-qPCR as previously described (Proc Natl Acad Sci USA. 106(6):2012-7, 2009). *P<0.05 (nonparametric t-test, compared to PBS group).
FIG. 7. […] On day 30 post-immunization, draining lymph nodes were harvested from the naïve, PBS, OxA300 RO, and OxA300 IP groups (FIG. 2, panel C). Assessment by flow cytometry was performed by using the mouse regulatory T cell staining kit: lymph node Tregs were defined as […] and proliferative Tregs as CD4^+CD25^+Foxp3^+Ki67^+ cells.
Histograms represent the mean of the percentage (left) and the total number (right) of Tregs and proliferative Tregs (Ki67^+Tregs) for each group. Bars represent the mean+/−SEM of 5 individual mice. *P<0.05 (non parametric t-test, compared to PBS group).
Therefore, orexin A presents potent intrinsic anti-inflammatory properties, capable of modulating the Th/Treg homeostasis during an auto-immune response as aggressive as in a chronic EAE model.
(Flow cytometry measures light scatter and fluorescence of single cells or particles in a stream.)

The next assay concerns HEK-OX1R cells. In words: Cells growth determination, HEK-OX1R cells. The format is cell-based. Particulars: 48 hr; OxA 0.1 μM, SB408124 increasing concentrations. The procedure: FIG. 12: Determination of the inhibition of cellular growth of HEK-OX1R cells and colon adenocarcinoma cells (HT-29) induced by 0.1 μM of OxA or various concentrations of SB408124 antagonist. HEK-OX1R cells (black column) and HT-29 cells (white column) were incubated with 0.1 μM of OxA and indicated increasing concentration of SB408124, and cells were counted after 48 hr incubation. Results are expressed as the percentage of total viable cells.
(§1) Cells growth determination and apoptosis assay: HEK-OX1R cells or colon adenocarcinoma HT-29 cells were seeded, grown and maintained at 37° C. in a humidified 5% CO2/air incubator. After 24 hr culture, cells were treated with or without Orexin-A peptide or SB408124 antagonist, previously dissolved in DMSO, to be tested at the concentration indicated in the figure legends. After 48 hr of treatment, adherent cells were harvested by Trip1E (Life Technologies, Saint Aubin, France) and manually counted. Apoptosis was determined using the Guava PCA system and the Guava nexin kit.

Assay [2] deals with colon adenocarcinoma HT-29 cells. Nature of the assay: Apoptosis assay (annexin V-PE binding, Guava nexin kit) in HT-29 cells. The format is cell-based. As to conditions: 48 h; orexin-A 1 μM, SB408124 various concentrations. As to the method:
FIG. 13: Effect of orexin-A and SB408124 antagonist on apoptosis in OX1R expressing colon adenocarcinoma cells, HT-29. HT-29 cells were challenged with 1 μM orexin-A or various concentration of SB408124 for 48 h. Apoptosis was measured by determination of annexin V-PE binding, and results are expressed as the percentage of apoptotic cells. Results are means±SE of three experiments. ***P<0.001.
as §1

Setting [3] is: 30 days after EAE induction, RT-qPCR, OxA 300 μg RO or IP.

No end group written: not given here.

For the substance “OxA: neuropeptide, endogenous ligand of OX1R and OX2R, with two disulphide bridges (QPLPDCCRQKTCSCRLYELLHGAGNHAAGILTL; disulfide (positions not given here); ends not checked; also: two disulphide bridges, pairing not given here; UniProt O43612 34-66, looked up)”, in assay [1], the “IL6 secretion in colon extracts” value is given as “reduces”, the “IL10 secretion in colon extracts” value was “no effect”, the “IL12 secretion in colon extracts” value is “no effect” and the “INFγ secretion in colon extracts” value is “no effect”. Besides, the “TNFα secretion in colon extracts” value in assay [1] is listed as “reduces”. Further, in assay [1] (qPCR per FIG. 3), the “IL1B in colon extracts” value is listed as “reduces” and the “IL8 homolog in colon extracts” value was “reduces”. Besides, in the assay with EAE mice (setting [3]), the “Th1-specific (IFNγ) cytokine gene expression in the brain” value was “efficiently suppresses” and the “Th17-specific (IL-17) cytokine gene expression in the brain” value was “efficiently suppresses”. Moreover, the “Histopathological EAE score (spinal cord)” value with EAE mice (OxA 300 μg RO or IP, listed as Orexin A) was “significantly decreases”. Besides, in the assay with EAE mice (OxA 300 μg RO or IP, listed as orexin A), the “Histopathological EAE score (spinal cord)” value was “drastic reduction”. In the assay with EAE mice (listed as Orexin A), the “Regulatory T cell (Treg) proportion in draining lymph nodes” value is “increased” and the “Clinical features of EAE (clinical score 0-5)” value was “dramatically alleviate”. Besides, in the assay on EAE mice (listed as orexin A), the “Regulatory T cell (Treg) proportion in draining lymph nodes” value was “increase” and the “Clinical features of EAE (clinical score 0-5)” value is listed as “significantly ameliorated”. The “Th1/Th17 pro-inflammatory responses in the CNS tissues” value in the assay on EAE mice (orexin A treated-mice versus PBS controls) is listed as “drastic reduction”. Besides, in the assay with HEK-OX1R cells, the “Inhibition of cellular growth of HEK-OX1R cells” value is “strong inhibition”. For the same substance, the “Apoptosis in HT-29 cells” value in assay [2] is “induced an apoptotic effect”.
